Source: PMC5903252 (British Journal of Clinical Pharmacology, 2018)

Experiment: Plasma pharmacokinetics of BMS-962212 after IV infusion
Settings: for clearance / Vd / half-life / AUC(0-inf) / AUC(0-t) / Cmax / Tmax: human, in vivo
[1] = part B 1 mg h^−1, Japanese ethnicity (n = 4), geometric mean (CV%)
[2] = part B 1 mg h^−1, Non-Japanese ethnicity (n = 4), geometric mean (CV%)
[3] = part B 3 mg h^−1, Japanese ethnicity (n = 4), geometric mean (CV%)
[4] = part B 3 mg h^−1, Non-Japanese ethnicity (n = 4), geometric mean (CV%)
[5] = part B 9 mg h^−1, Japanese ethnicity (n = 4), geometric mean (CV%)
[6] = part B 9 mg h^−1, Non-Japanese ethnicity (n = 4), geometric mean (CV%)
[7] = part B 20 mg h^−1, Japanese ethnicity (n = 4), geometric mean (CV%)
[8] = part B 20 mg h^−1, Non-Japanese ethnicity (n = 4), geometric mean (CV%)

`CN1CCN(c2cccc3c2CCN(C(=O)/C=C/c2c(-n4cnnn4)ccc(Cl)c2F)[C@@H]3C(=O)Nc2ccc(C(=O)O)cc2)C(=O)C1` [BMS‐962212] showed a clearance (iv, 1.5 mg h^−1, CL, part A 2-h IV infusion 1.5 mg h^−1, geometric mean (CV%)) of 276 mL/min, a Vd (iv, 1.5 mg h^−1, Vz, part A 2-h IV infusion 1.5 mg h^−1, geometric mean (CV%)) of 72.6 L and a half-life (iv, 1.5 mg h^−1, t1/2, part A 2-h IV infusion 1.5 mg h^−1, geometric mean (CV%)) of 2.04 h. The AUC(0-inf) (iv, 3 mg h^−1) was 21400 ng·h/mL, the AUC(0-t) (iv, 3 mg h^−1) was 21200 ng·h/mL and the Cmax (iv, 3 mg h^−1) was 202 ng/mL. It also gave a Tmax (iv, 3 mg h^−1) of 60 h, a clearance (iv, 3 mg h^−1, CL, part B 5-day IV infusion 3 mg h^−1, geometric mean (CV%)) of 280 mL/min and a Vd (iv, 3 mg h^−1, Vz, part B 5-day IV infusion 3 mg h^−1, geometric mean (CV%)) of 165 L. The half-life (iv, 3 mg h^−1, t1/2, part B 5-day IV infusion 3 mg h^−1, geometric mean (CV%)) was 6.22 h, the AUC(0-inf) (iv, 4 mg h^−1) was 377 ng·h/mL and the AUC(0-t) (iv, 4 mg h^−1) was 233 ng·h/mL. For the same molecule, the Cmax (iv, 4 mg h^−1) was 182 ng/mL, the Tmax (iv, 4 mg h^−1) was 2 h and the clearance (iv, 4 mg h^−1, CL, part A 2-h IV infusion 4 mg h^−1, geometric mean (CV%)) was 358 mL/min. For the same molecule, the Vd (iv, 4 mg h^−1, Vz, part A 2-h IV infusion 4 mg h^−1, geometric mean (CV%)) was 118 L, the half-life (iv, 4 mg h^−1, t1/2, part A 2-h IV infusion 4 mg h^−1, geometric mean (CV%)) was 3.95 h and the AUC(0-inf) (iv, 9 mg h^−1) was 55500 ng·h/mL. It also gave an AUC(0-t) (iv, 9 mg h^−1) of 54800 ng·h/mL, a Cmax (iv, 9 mg h^−1) of 520 ng/mL and a Tmax (iv, 9 mg h^−1) of 36 h. For the same molecule, the clearance (iv, 9 mg h^−1, CL, part B 5-day IV infusion 9 mg h^−1, geometric mean (CV%)) was 324 mL/min, the Vd (iv, 9 mg h^−1, Vz, part B 5-day IV infusion 9 mg h^−1, geometric mean (CV%)) was 216 L and the half-life (iv, 9 mg h^−1, t1/2, part B 5-day IV infusion 9 mg h^−1, geometric mean (CV%)) was 8.65 h. For the same molecule, the AUC(0-inf) (iv, 10 mg h^−1) was 1050 ng·h/mL, the AUC(0-t) (iv, 10 mg h^−1) was 664 ng·h/mL and the Cmax (iv, 10 mg h^−1) was 505 ng/mL. The Tmax (iv, 10 mg h^−1) was 2 h, the clearance (iv, 10 mg h^−1, CL, part A 2-h IV infusion 10 mg h^−1, geometric mean (CV%)) was 320 mL/min and the Vd (iv, 10 mg h^−1, Vz, part A 2-h IV infusion 10 mg h^−1, geometric mean (CV%)) was 126 L. The half-life (iv, 10 mg h^−1, t1/2, part A 2-h IV infusion 10 mg h^−1, geometric mean (CV%)) was 4.68 h, the AUC(0-inf) (iv, 20 mg h^−1) was 126000 ng·h/mL and the AUC(0-t) (iv, 20 mg h^−1) was 124000 ng·h/mL. The Cmax (iv, 20 mg h^−1) was 1170 ng/mL, the Tmax (iv, 20 mg h^−1) was 60 h and the clearance (iv, 20 mg h^−1, CL, part B 5-day IV infusion 20 mg h^−1, geometric mean (CV%)) was 317 mL/min. For the same molecule, the Vd (iv, 20 mg h^−1, Vz, part B 5-day IV infusion 20 mg h^−1, geometric mean (CV%)) was 219 L, the half-life (iv, 20 mg h^−1, t1/2, part B 5-day IV infusion 20 mg h^−1, geometric mean (CV%)) was 7.65 h and the AUC(0-inf) (iv, 25 mg h^−1) was 2730 ng·h/mL. The AUC(0-t) (iv, 25 mg h^−1) was 1740 ng·h/mL, the Cmax (iv, 25 mg h^−1) was 1120 ng/mL and the Tmax (iv, 25 mg h^−1) was 2 h. It also gave a clearance (iv, 25 mg h^−1, CL, part A 2-h IV infusion 25 mg h^−1, geometric mean (CV%)) of 312 mL/min, a Vd (iv, 25 mg h^−1, Vz, part A 2-h IV infusion 25 mg h^−1, geometric mean (CV%)) of 129 L and a half-life (iv, 25 mg h^−1, t1/2, part A 2-h IV infusion 25 mg h^−1, geometric mean (CV%)) of 4.94 h. For the same molecule, the clearance (iv, CL, range across panels, part A 2-h IV infusion) was 276 to 358 mL/min, the clearance (iv, CL, range across panels, part B 5-day IV infusion) was 280 to 324 mL/min and the Vd (iv, Vss, range across panels, 5-day IV infusion) was 164 to 218 L. For the same molecule, the Vd (iv, Vz, range across panels, 2-h IV infusion) was 72 to 129 L, the half-life (t1/2 range over all dose groups, part B, Japanese subjects) was 6.42 to 8.28 h and the half-life (t1/2 range over all dose groups, part B, non-Japanese subjects) was 6.05 to 8.32 h. For the same molecule, the “Steady‐state concentration” value [1] was 55.81 (20.5) ng ml ^−1, the “Weight‐corrected steady‐state concentration” value [1] was 4.21 (21.6) kg μg.ml ^−1 and the “Steady‐state concentration” value [2] was 49.88 (27.3) ng ml ^−1. For the same molecule, the “Weight‐corrected steady‐state concentration” value [2] was 4.34 (15.5) kg μg.ml ^−1, the “Steady‐state concentration” value [3] was 188.03 (17.9) ng ml ^−1 and the “Weight‐corrected steady‐state concentration” value [3] was 14.33 (32.9) kg μg.ml ^−1. The “Steady‐state concentration” value [4] was 157.76 (12.9) ng ml ^−1, the “Weight‐corrected steady‐state concentration” value [4] was 14.10 (22.7) kg μg.ml ^−1 and the “Steady‐state concentration” value [5] was 439.27 (18.9) ng ml ^−1. For the same molecule, the “Weight‐corrected steady‐state concentration” value [5] was 29.60 (18.9) kg μg.ml ^−1, the “Steady‐state concentration” value [6] was 458.34 (18.9) ng ml ^−1 and the “Weight‐corrected steady‐state concentration” value [6] was 34.47 (23.5) kg μg.ml ^−1. For the same molecule, the “Steady‐state concentration” value [7] was 1161.68 (17.7) ng ml ^−1, the “Weight‐corrected steady‐state concentration” value [7] was 76.07 (30.1) kg μg.ml ^−1 and the “Steady‐state concentration” value [8] was 887.21 (23.3) ng ml ^−1. For the same molecule, the “Weight‐corrected steady‐state concentration” value [8] was 70.57 (32.4) kg μg.ml ^−1 and the dose proportionality (parts A and B) was “demonstrated dose proportionality”.
